Legend:
Assay type in all cases: biochemical
[1] = molecular target: LRRK2 (G2019S) (Homo sapiens, UniProt Q5S007, G2019S); assay: LRRK2 G2019S enzyme inhibition, ADP-Glo kinase assay; parameters: purchased SignalChem L10-12GG
Experimental: (§1) In order to evaluate the inhibitory activity of the compounds according to the present invention on LRRK2, LRRK2 (G2019S), DYRK1, CLK1 and TTK kinases, the following experiment was performed.
Example compounds were reacted with the purified human LRRK2 G2019S (L10-12GG, SignalChem) enzyme to evaluate the enzyme inhibitory ability as follows. The reaction buffer was used as the composition of 40 mM Tris-HCl pH7.4, 20 mM MgCl2, 0.5 mg/ml BSA and 50 μM DTT, and the reaction of all test materials was performed on the reaction buffer. The compound was diluted with 10 mM DMSO stock in 12 steps by a serial dilution method, and the enzyme activity was measured at the final compound concentrations of 50, 10, 2, 0.4, 0.08, 0.016, 0.0032, 0.00064, 0.000128, 0.0000256, 0.00000512 and 0.000001024 μM. In the test, the human LRRK2 G2019S (16 ng) enzyme was reacted with the purified ATP (25 μM) and an enzyme substrate (0.2 μg) at 25° C. for 2 hours, and then the enzyme activity was identified using the in vitro ADP-Glo™ kinase assay (promega). The enzyme activity reaction liquid, an ADP-Glo reaction liquid and an enzyme potency detection solution were reacted in a ratio of 2:2:1, and the degree of inhibition of enzyme activity was measured by Luminescence. The degree of inhibition of enzyme activity according to the treatment concentrations of the respective compounds was calculated based on the fluorescence of the enzyme activity of a solvent control group that was not treated with the compound, where the concentration of each compound to inhibit enzyme activity inhibition by 50% was determined as an IC50 (nM) value and obtained using Prism (Version 5.01, GraphPad) software.
(§2) In the table below, the following designations were used for the evaluation of enzyme inhibitory ability.

[2] = molecular target: T1, human GST-CLK1 (129-end) (Homo sapiens, UniProt P49759); assay: GST-CLK1 enzyme inhibition, ADP-Glo kinase assay; conditions: ATP 10 uM
T1 construct: purified human GST-CLK1 (129-end, Signalchem) enzyme; GST; purchased Signalchem
Experimental: as §1
(§3) Example compounds were reacted with the purified human GST-CLK1 (129-end, Signalchem) enzyme to evaluate the enzyme inhibitory ability as follows. As the reaction buffer, the composition of 40 mM Tris-HCl pH 7.4, 20 mM MgCl2, 0.5 mg/mL BSA, and 50 uM DTT was used, and the reaction of all test materials was performed on the reaction buffer. During the test, the human GST-CLK1 (129-end, 3 ng) enzyme, the purified ATP (10 uM), and a specific substrate solution were reacted at 25° C. for 1 hour, and then the enzyme activity was identified using the in vitro ADP-Glo™ kinase assay (promega). Luminescence was measured by reacting the enzyme activity reaction solution, an ADP-Glo reaction solution and the enzyme potency detection solution in a ratio of 2:2:1. The degree of inhibition of enzyme activity according to the treatment concentrations of the respective compounds was calculated based on the fluorescence of the enzyme activity of a solvent control group that was not treated with the compound, where the concentration of each compound to inhibit enzyme activity inhibition by 50% was determined as an IC50 (nM) value. The IC50 of each compound was determined in triplicate data sets and obtained using Prism (version 7.01, GraphPad) software.
as §2

[3] = molecular target: T2, human GST-DYRK1A (full length) (Homo sapiens, UniProt Q13627); assay: GST-DYRK1A enzyme inhibition, ADP-Glo kinase assay; conditions: read-out: DYRK1 IC50
T2 construct: purified human GST-DYRK1A (full length, Thermo scientifics) enzyme; GST; purchased Thermo scientifics
Experimental: as §1
as §3, with “GST-DYRK1A (full length, Thermo scientifics)” for “GST-CLK1 (129-end, Signalchem)”, “GST-DYRK1A (full length, 10” for “GST-CLK1 (129-end, 3”
as §2

Sequence of LRRK2 (G2019S) (Q5S007 970-2527 G2019S limits assumed): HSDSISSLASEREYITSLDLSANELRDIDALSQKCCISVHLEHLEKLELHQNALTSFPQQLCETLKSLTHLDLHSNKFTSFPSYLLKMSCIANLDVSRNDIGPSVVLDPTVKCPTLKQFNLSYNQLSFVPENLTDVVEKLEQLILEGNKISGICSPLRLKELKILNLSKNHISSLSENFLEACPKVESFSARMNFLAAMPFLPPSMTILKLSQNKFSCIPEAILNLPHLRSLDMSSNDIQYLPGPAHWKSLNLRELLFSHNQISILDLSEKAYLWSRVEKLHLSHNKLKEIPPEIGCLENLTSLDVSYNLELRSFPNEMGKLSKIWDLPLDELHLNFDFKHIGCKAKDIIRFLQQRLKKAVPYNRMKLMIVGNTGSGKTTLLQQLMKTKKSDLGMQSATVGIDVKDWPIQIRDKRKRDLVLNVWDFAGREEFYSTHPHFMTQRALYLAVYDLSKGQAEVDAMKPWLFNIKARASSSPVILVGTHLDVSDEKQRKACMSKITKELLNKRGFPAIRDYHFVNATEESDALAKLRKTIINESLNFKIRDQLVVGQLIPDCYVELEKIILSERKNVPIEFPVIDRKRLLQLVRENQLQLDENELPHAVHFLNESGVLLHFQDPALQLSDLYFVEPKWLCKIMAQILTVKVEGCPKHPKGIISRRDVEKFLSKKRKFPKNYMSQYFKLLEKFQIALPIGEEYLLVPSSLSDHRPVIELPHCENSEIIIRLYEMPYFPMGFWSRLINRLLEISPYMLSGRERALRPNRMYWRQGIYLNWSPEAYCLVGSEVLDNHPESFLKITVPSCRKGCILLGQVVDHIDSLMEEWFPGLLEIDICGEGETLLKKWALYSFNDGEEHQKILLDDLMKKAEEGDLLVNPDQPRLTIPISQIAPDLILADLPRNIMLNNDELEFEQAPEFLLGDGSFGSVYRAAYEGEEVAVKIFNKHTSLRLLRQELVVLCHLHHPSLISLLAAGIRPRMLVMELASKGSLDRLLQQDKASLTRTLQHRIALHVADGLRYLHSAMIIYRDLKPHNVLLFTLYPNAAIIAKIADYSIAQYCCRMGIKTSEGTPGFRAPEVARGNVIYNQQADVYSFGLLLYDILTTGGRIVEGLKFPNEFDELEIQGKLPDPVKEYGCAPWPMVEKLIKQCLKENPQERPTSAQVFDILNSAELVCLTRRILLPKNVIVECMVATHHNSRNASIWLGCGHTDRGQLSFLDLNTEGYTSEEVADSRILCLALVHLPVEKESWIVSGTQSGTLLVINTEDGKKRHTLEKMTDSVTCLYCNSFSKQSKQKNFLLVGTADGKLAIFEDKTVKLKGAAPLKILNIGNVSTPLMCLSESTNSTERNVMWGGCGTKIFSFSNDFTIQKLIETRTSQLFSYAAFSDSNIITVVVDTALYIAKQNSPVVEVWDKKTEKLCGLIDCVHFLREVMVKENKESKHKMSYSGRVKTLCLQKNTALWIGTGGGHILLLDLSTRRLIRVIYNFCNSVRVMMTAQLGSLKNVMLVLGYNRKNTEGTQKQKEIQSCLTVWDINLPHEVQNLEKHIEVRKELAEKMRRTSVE
T1 sequence (P49759 129-484 limits assumed): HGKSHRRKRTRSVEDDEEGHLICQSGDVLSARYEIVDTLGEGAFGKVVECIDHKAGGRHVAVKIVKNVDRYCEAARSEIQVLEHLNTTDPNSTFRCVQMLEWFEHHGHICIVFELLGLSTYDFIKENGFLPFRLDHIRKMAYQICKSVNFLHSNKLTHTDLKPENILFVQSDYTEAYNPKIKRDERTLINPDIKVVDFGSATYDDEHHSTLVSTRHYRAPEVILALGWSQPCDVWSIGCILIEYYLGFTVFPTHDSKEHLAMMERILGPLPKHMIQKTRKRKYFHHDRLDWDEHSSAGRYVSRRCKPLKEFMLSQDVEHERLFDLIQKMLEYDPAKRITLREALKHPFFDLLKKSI

Row | SMILES | IC50 [1] | IC50 [2] | IC50 [3]
1 | COc1cc(S(=O)(=O)N2CCOCC2)ccc1Nc1cc(NC(C)C)c2cc[nH]c2n1 [Example 13, N^4-isopropyl-N^6-(2-methoxy-4-(morpholinosulfonyl)phenyl)-1H-pyrrolo[2,3-b]pyridine-4,6-diamine] | 301 to 1000 nM | 301 to 1000 nM | 301 to 1000 nM
2 | COc1cc(S(=O)(=O)N2CCC(N3CCOCC3)CC2)ccc1Nc1cc(NC2CC2)c2cc[nH]c2n1 [Example 22, N^4-cyclopropyl-N^6-(2-methoxy-4-((4-morpholinopiperidin-1-yl)sulfonyl)phenyl)-1H-pyrrolo[2,3-b]pyridine-4,6-diamine] | < 100 nM | 301 to 1000 nM | 301 to 1000 nM
3 | CCCNc1cc(Nc2ccc(C(=O)N3CCOCC3)c3c2OCCO3)nc2[nH]ccc12 [Example 4, morpholino(8-((4-(propylamino)-1H-pyrrolo[2,3-b]pyridin-6-yl)amino)-2,3-dihydrobenzo [b] [1,4]dioxin-5-yl)(morpholino) methanone 2,2,2-trifluoroacetate] | < 100 nM | 301 to 1000 nM | 301 to 1000 nM
4 | COc1cc(S(C)(=O)=O)ccc1Nc1cc(NCCS(C)(=O)=O)c2cc[nH]c2n1 [Example 31, N^6-(2-methoxy-4-(methylsulfonyl)phenyl)-N^4-(2-(methylsulfonyl)ethyl)-1H-pyrrolo[2,3-b]pyridine-4,6-diamine] | 301 to 1000 nM | 301 to 1000 nM | 301 to 1000 nM
5 | COc1cc(S(=O)(=O)N2CCOCC2)ccc1Nc1cc(NC2CCCCC2)c2cc[nH]c2n1 [Example 16, N^4-cyclohexyl-N^6-(2-methoxy-4-(morpholinosulfonyl)phenyl)-1H-pyrrolo[2,3-b]pyridine-4,6-diamine] | 301 to 1000 nM | 301 to 1000 nM | 301 to 1000 nM
6 | CNc1cc(Nc2ccc(C(=O)N3CCOCC3)c3c2OCCO3)nc2[nH]cc(Cl)c12 [Example 56, (8-((3-chloro-4-(methylamino)-1H-pyrrolo[2,3-b]pyridin-6-yl)amino)-2,3-dihydrobenzo[b] [1,4]dioxin-5-yl)(morpholino) methanone 2,2,2-trifluoroacetate] | < 100 nM | 301 to 1000 nM | 301 to 1000 nM
7 | C=CCN1CCN(C(=O)c2ccc(Nc3cc(NCC)c4c(C(F)(F)F)c[nH]c4n3)c3c2CCO3)CC1 [Example 252, (4-allylpiperazin-1-yl)(7-((4-(ethylamino)-3-(trifluoromethyl)-1H-pyrrolo[2,3-b]pyridin-6-yl)amino)-2,3-dihydrobenzofuran-4-yl)methanone] | < 100 nM | < 100 nM | < 100 nM
8 | COc1cc(S(C)(=O)=O)ccc1Nc1cc(NC2CC2)c2cc[nH]c2n1 [Example 1, N^4-cyclopropyl-N^6-(2-methoxy-4-(methylsulfonyl)phenyl)-1H-pyrrolo[2,3-b]pyridine-4,6-diamine] | 301 to 1000 nM | 301 to 1000 nM | 301 to 1000 nM
9 | COc1cc(S(=O)(=O)N2CCOCC2)ccc1Nc1cc(NCC(C)C)c2cc[nH]c2n1 [Example 14, N^4-isobutyl-N^6-(2-methoxy-4-(morpholinosulfonyl)phenyl)-1H-pyrrolo[2,3-b]pyridine-4,6-diamine] | 301 to 1000 nM | 301 to 1000 nM | 301 to 1000 nM
10 | CCNc1cc(Nc2ccc(C(=O)N3OCC[C@H]3c3cc(F)cc(F)c3)c3c2OCC3)nc2[nH]cc(C(F)(F)F)c12 [Example 246, (S)-(3-(3,5-difluorophenyl)isoxazolidin-2-yl)(7-((4-(ethylamino)-3-(trifluoromethyl)-1H-pyrrolo[2,3-b]pyridin-6-yl)amino)-2,3-dihydrobenzofuran-4-yl)methanone] | 301 to 1000 nM | 301 to 1000 nM | 301 to 1000 nM
11 | COc1cc(S(=O)(=O)N2CCOCC2)ccc1Nc1cc(NC2CC2)c2c(Cl)c[nH]c2n1 [Example 68, 3-chloro-N^4-cyclopropyl-N^6-(2-methoxy-4-(morpholinosulfonyl)phenyl)-1H-pyrrolo[2,3-b]pyridine-4,6-diamine] | 301 to 1000 nM | 301 to 1000 nM | 301 to 1000 nM
12 | COc1cc(S(=O)(=O)N2CCC(N3CCOCC3)CC2)ccc1Nc1cc(NC(C)C)c2c(Cl)c[nH]c2n1 [Example 75, 3-chloro-N^4-isopropyl-N^6-(2-methoxy-4-((morpholinopiperidin-1-yl)sulfonyl)phenyl)-1H-pyrrolo[2,3-b]pyridine-4,6-diamine] | < 100 nM | 301 to 1000 nM | 301 to 1000 nM

The remaining lines, values ahead:

Row | IC50 [1] | IC50 [2] | IC50 [3] | SMILES
13 | < 100 nM | < 100 nM | < 100 nM | CCNc1cc(Nc2ccc(C(=O)N3CCO[C@H](C)C3)c3c2OCC3)nc2[nH]cc(C(F)(F)F)c12 [Example 260, (R)-(7-((4-(ethylamino)-3-(trifluoromethyl)-1H-pyrrolo[2,3-b]pyridin-6-yl)amino)-2,3-dihydrobenzofuran-4-yl)(2-methylmorpholino) methanone]
14 | 101 to 300 nM | 301 to 1000 nM | 301 to 1000 nM | O=C(c1ccc(Nc2cc(NC3CCCCC3)c3cc[nH]c3n2)c2c1OCCO2)N1CCOCC1 [Example 8, (8-((4-(cyclohexylamino)-1H-pyrrolo[2,3-b]pyridin-6-yl)amino)-2,3-dihydrobenzo[b] [1,4]dioxin-5-yl)(morpholino) methanone]
15 | 101 to 300 nM | 301 to 1000 nM | 301 to 1000 nM | CCNc1cc(Nc2ccc(C(=O)N3CCOCC3)c3c2OCCO3)nc2[nH]ccc12 [Example 3, (8-((4-(ethylamino)-1H-pyrrolo[2,3-b]pyridin-6-yl)amino)-2,3-dihydrobenzo[b] [1,4]dioxin-5-yl)(morpholino) methanone 2,2,2-trifluoroacetate]
16 | 101 to 300 nM | 301 to 1000 nM | 301 to 1000 nM | CCNc1cc(Nc2ccc(S(=O)(=O)N3CCC(N4CCOCC4)CC3)cc2OC)nc2[nH]cc(Cl)c12 [Example 74, 3-chloro-N^4-ethyl-N^6-(2-methoxy-4-((morpholinopiperidin-1-yl)sulfonyl)phenyl)-1H-pyrrolo[2,3-b]pyridine-4,6-diamine]
17 | < 100 nM | 301 to 1000 nM | 301 to 1000 nM | COc1cc(S(=O)(=O)N2CCOCC2)ccc1Nc1cc(NC2CC2)c2cc[nH]c2n1 [Example 15, N^4-cyclopropyl-N^6-(2-methoxy-4-(morpholinosulfonyl)phenyl)-1H-pyrrolo[2,3-b]pyridine-4,6-diamine]
18 | < 100 nM | 301 to 1000 nM | 301 to 1000 nM | COc1cc(S(=O)(=O)N2CCC(N3CCOCC3)CC2)ccc1Nc1cc(NCC(C)C)c2cc[nH]c2n1 [Example 21, N^4-isobutyl-N^6-(2-methoxy-4-((4-morpholinopiperidin-1-yl)sulfonyl)phenyl)-1H-pyrrolo[2,3-b]pyridine-4,6-diamine]
19 | < 100 nM | < 100 nM | 101 to 300 nM | CCNc1cc(Nc2ccc(C(=O)N3CCN(C4CCCC4)CC3)c3c2OCC3)nc2[nH]cc(C(F)(F)F)c12 [Example 251, (4-cyclopentylpipe razin-1-yl)(7-((4-(ethylamino)-3-(trifluoromethyl)-1H-pyrrolo[2,3-b]pyridin-6-yl)amino)-2,3-dihydrobenzofuran-4-yl)methanone]

Source: US12240844B2 (Voronoi, Inc., priority 2019, dated 2025)
